From PubChem BioAssay AID720601 (Broad Institute, 2013)
Records with an inconclusive call do not appear. The source made the active and inactive calls.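 The calls were made as follows: active = compounds lowering the viability dye signal with a fitted AC50 within twice the top dose in all three time points; inconclusive = time points disagree in their calls; inactive = inactive at every time point, including signal rises.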

Columns and labels:
[1] = C2C12 mouse myoblast viability loss, dose response, cytotoxicity control for HRAS target identification, cell-based, Alamar Blue fluorescence, 8/24/48 h, dry powder (AID 720601); details: C2C12 mouse myoblast viability, Alamar Blue, 8/24/48 h, at 35 µM, stronger effect = lower value
[2] = test system: C2C12 mouse myoblast viability, Alamar Blue, 8/24/48 h; assay: as above

Row | SMILES | activity ([1]; 8 h viability change) [%] | activity ([1]; 24 h viability change) [%] | AC50 [2]
1 | Cc1onc(C(=O)N2CCN(C(c3ccncc3)c3ccncc3)CC2)c1[N+](=O)[O-] | -0.518 | -6.22 | –
2 | CCC(=O)N(c1ccc(OC)c(Cl)c1)C(C(=O)NCCc1ccccc1)c1cccs1 (stereo not given) | 0.483 | -13.2 | > 70 µM (inactive)
